Values quoted from earlier work as cited in US20200171149A1, “COMBINATION THERAPY FOR NON-SMALL CELL LUNG CANCER POSITIVE FOR EGFR MUTATION” (MEDIMMUNE LIMITED, priority 2015, published 2020).

Legend:
[1] = system: tumor; settings: patients
[2] = system: EGFR-TKI sensitizing and resistance T790M mutations; settings: preclinical models; Janne et al., J Clin Oncol 2014
[3] = system: human T-cell activation; settings: in vitro
[4] = system: xenograft model; settings: T-cell dependent mechanism

For COc1cc2ncnc(Nc3ccc(F)c(Cl)c3)c2cc1OCCCN1CCOCC1 [gefitinib, N-(3-chloro-4-fluorophenyl)-7-methoxy-6-(3-morpholinopropoxy)quinazolin-4-amine], the Tumor regression [1] is listed as “tumor regression in some patients”.

For C=CC(=O)Nc1cc(Nc2nccc(-c3cn(C)c4ccccc34)n2)c(OC)cc1N(C)CCN(C)C [AZD9291, N-(2-((2-(dimethylamino)ethyl)(methyl)amino)-4-methoxy-5-((4-(1-methyl-1H-indol-3-yl)pyrimidin-2-yl)amino)phenyl)acrylamide], the “Effectiveness against EGFR mutations” value [2] is listed as “effective against both EGFR-TKI sensitizing and resistance T790M mutations”.

B1: MEDI4736: anti-PD-L1 antibody selective for PD-L1; light chain variable SEQ ID NO: 1, heavy chain variable SEQ ID NO: 2 (antibody, V domains shown)
VH: EVQLVESGGGLVQPGGSLRLSCAASGFTFSRYWMSWVRQAPGKGLEWVANIKQDGSEKYYVDSVKGRFTISRDNAKNSLYLQMNSLRAEDTAVYYCAREGGWFGELAFDYWGQGTLVTVSS
VL: EIVLTQSPGTLSLSPGERATLSCRASQRVSSSYLAWYQQKPGQAPRLLIYDASSRATGIPDRFSGSGSGTDFTLTISRLEPEDFAVYYCQQYGSLPWTFGQGTKVEIK
For B1, the “Relief of PD-L1-mediated suppression of human T-cell activation” value [3] is listed as “can relieve PD-L-mediated suppression of human T-cell activation” and the Tumor growth inhibition [4] is listed as “inhibits tumor growth”.
